# Assays:
# [1] = pKa of the amino group (conjugated acid) of the amino compound used in the slurry; conditions: water
# Source text: Such value of the pKa can be measured by the potentiometric titration method. In the present specification, the pKa of the amino group is “pKa of conjugated acid of the amino group”.
pKa [1],SMILES,pKa (physchem)
7.6,N[C@H]1C(O)O[C@H](CO)[C@@H](O)[C@@H]1O (stereo partly shown) [glucosamine],
10,CCCCNCCO [2-(butylamino)ethanol],

SMILES,pKa [1],pKa (physchem)
"CCNC[C@H](O)[C@@H](O)[C@H](O)[C@H](O)CO [N-ethyl glucamine, N-ethylglucamine]",9.5,

# Reference: US9437446B2, “Slurry for chemical mechanical polishing and chemical mechanical polishing method” (KURARAY CO., LTD., priority 2012, dated 2016)
